Molecules are shown by their SMILES.

This data set is described as follows: Aqueous solubility. The class given is physicochemical.

Consider `CO[C@@H]1CCN(c2nccc(Nc3cc4c(C(C)C)ccc(N5C[C@H](CS(C)(=O)=O)[C@H]5C)c4cn3)n2)C[C@@H]1F` [Compound (I), N-(2-((3S,4R)-3-fluoro-4-methoxypiperidin-1-yl)pyrimidin-4-yl)-5-isopropyl-8-((2R,3S)-2-methyl-3-((methylsulfonyl)methyl)azetidin-1-yl)isoquinolin-3-amine], for which the aqueous solubility entry is recorded as “low aqueous solubility”.

Values taken from patent US20240293323A1, “PHARMACEUTICAL COMPOSITIONS OF AN EPIDERMAL GROWTH FACTOR RECEPTOR INHIBITOR” (Blueprint Mdeicines Coroporation, priority 2021, published 2024).
